These results are taken from PubChem BioAssay AID1552 (Sanford-Burnham Center for Chemical Genomics, 2009).

Calls of active or inactive are those of the source. No rule for the calls is given here.

This assay deals with Ubiquitin-conjugating enzyme E2 N (Homo sapiens) (UniProt P61088). The experiment in a line: NMR detection of UBE2N ligand binding – biophysical, purified protein (AID 1552). The settings on record: NMR binding to purified UBE2N.
Sequence of Ubiquitin-conjugating enzyme E2 N (Homo sapiens) (P61088 whole entry, looked up): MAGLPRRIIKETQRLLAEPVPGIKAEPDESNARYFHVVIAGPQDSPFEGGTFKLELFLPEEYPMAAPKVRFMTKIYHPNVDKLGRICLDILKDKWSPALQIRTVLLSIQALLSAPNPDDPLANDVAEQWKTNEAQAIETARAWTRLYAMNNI
Take `COc1ccc2c(c1)OCC(Cc1ccc(OC)c(OC)c1)C2=O` (centres undefined): the Kd is > 4 mM (inactive). As for `NCCc1nc2ccccc2[nH]1`, the figure is > 4 mM (inactive). As for `O=c1ccn([C@@H]2O[C@H](COP(=O)(O)OP(=O)(O)OP(=O)(O)O)[C@@H](O)[C@H]2O)c(=O)[nH]1`, the figure is > 4 mM (inactive); as for `Cc1nn2c(-c3ccncc3)nnc2c2ccccc12`, > 4 mM (inactive). With `CC(=O)O[C@]1(C)CC[C@@]23CC1C(C)(C)[C@@H]2CC[C@H]3C`, the Kd was > 4 mM (inactive).

With `CSc1nc(=O)[nH]c2c1CCC2`, the Kd was > 4 mM (inactive). As for `Cc1cc(=O)c2ccccc2n1CC(N)=O`, the figure is > 4 mM (inactive); as for `c1cncc(Nc2nc(-c3cccnc3)cs2)c1`, > 4 mM (inactive). With `Cc1c(O)c(O)cc2c1CC=C1[C@@]2(C)CC[C@@]2(C)C3C[C@](C)(C(=O)O)CC[C@]3(C)CC[C@]12C` (some centres undefined), the Kd was > 4 mM (inactive).

Regarding `O=C(O)c1cn(-c2ccccc2)nc1-c1cccnc1`, the Kd is > 4 mM (inactive). In the case of `CCN1CCC(NC2CCCCNC2=O)CC1` (centres undefined) it was > 4 mM (inactive).

For `CCOC(=O)N1CCCC1c1cccnc1` (centres undefined), the Kd is > 4 mM (inactive). As for `CC1O[C@@H](Oc2c(-c3ccc(O)c(O)c3)oc3cc(O)cc(O)c3c2=O)[C@H](O)[C@H](O)[C@H]1O` (some centres undefined), the figure is > 4 mM (inactive). For the molecule `O=C(O)c1cc(O)c2c(c1)[C@@H]([C@H]1c3cc(C(=O)O)cc(O)c3C(=O)c3c(O[C@H]4O[C@H](CO)[C@@H](O)[C@H](O)[C@H]4O)cccc31)c1cccc(O[C@H]3O[C@H](CO)[C@@H](O)[C@H](O)[C@H]3O)c1C2=O`, the Kd is > 4 mM (inactive). In the case of `NC(=O)C(=O)NCc1ccc(Cl)cc1` it was > 4 mM (inactive); in that of `Cc1nnc(SCc2cccs2)[nH]c1=O`, > 4 mM (inactive); in that of `Nc1cccc(C(=O)c2ccccc2)c1`, > 4 mM (inactive). For the molecule `CC(C)(C)C(=O)N1CCCC1C(=O)O` (centres undefined), the Kd is > 4 mM (inactive). Turning to `CC1(C)Cn2c(nnc2-c2ccccc2)S1`, the Kd is > 4 mM (inactive). In the case of `CC1CCN(C(=O)c2ccc3c(c2)OCCO3)CC1` it was > 4 mM (inactive); in that of `O=C1c2ccccc2C(=O)c2c(O)c(O)cc(O)c21`, > 4 mM (inactive). In the case of `CN(C)Cc1c(N)cccc1O` it was > 4 mM (inactive); in that of `O=C1C2CC=CCC2C(=O)N1c1cccc(O)c1` (centres undefined), > 4 mM (inactive); in that of `c1cnc(N2CCSCC2)nc1`, > 4 mM (inactive).

Regarding `Cn1nc(C(=O)Nc2cccnc2)c2ccccc2c1=O`, the Kd was > 4 mM (inactive). In the case of `CN1C(=O)c2ccc(N=C3NC(=O)CS3)cc2C1=O` it was > 4 mM (inactive). As for `CC1CC2(NC(=O)NC2=O)C(C)CN1C` (centres undefined), the figure is > 4 mM (inactive); as for `CCN(CC)c1nc2n(c(=O)n1)CCO2`, > 4 mM (inactive).

As to `Nc1cc(=O)[nH]c(=S)n1-c1cccc(C(F)(F)F)c1`, the Kd is > 4 mM (inactive). In the case of `COc1cccc(Oc2ccc(N)cc2)c1` it was > 4 mM (inactive); in that of `O=C1CCC(C(=O)NCc2ccc(Cl)cc2)N1` (centres undefined), > 4 mM (inactive). In the case of `O=S1(=O)CCC(NCCO)C1` (centres undefined) it was > 4 mM (inactive); in that of `Cn1cnc2cc(NC(=O)c3ccco3)ccc21`, > 4 mM (inactive). For `COC1=C(OC)C(=O)C(C/C=C(\C)CC/C=C(\C)CC/C=C(\C)CC/C=C(/C)CC/C=C(\C)CC/C=C(\C)CC/C=C(\C)CC/C=C(\C)CC/C=C(\C)CCC=C(C)C)=C(C)C1=O`, the Kd is > 4 mM (inactive). As to `O=C(NC(=S)NC1CCSC1=O)c1ccco1` (centres undefined), the Kd is > 4 mM (inactive). In the case of `CC(=O)Nc1ccc(CN2CCOCC2)cc1` it was > 4 mM (inactive).

Turning to `CCSc1nc(N)c(NC(=O)c2ccco2)c(=O)[nH]1`, the Kd was > 4 mM (inactive).

Take `COc1cc([C@H]2Oc3cc([C@H]4Oc5cc(O)cc(O)c5C(=O)[C@@H]4O)ccc3O[C@@H]2CO)ccc1O`: the Kd is > 4 mM (inactive).

On to `COC(=O)[C@H]1[C@H]2C[C@H]3c4[nH]c5ccccc5c4CCN3C[C@H]2CC[C@@H]1O`, for which the Kd is > 4 mM (inactive).

Regarding `O=c1cnnc(SCCc2ccccc2)[nH]1`, the Kd was > 4 mM (inactive).

Consider `C[C@H]1O[C@@H](O[C@H]2[C@@H](O)C[C@H](O[C@H]3[C@@H](O)C[C@H](O[C@H]4CC[C@]5(C)C6CC[C@]7(C)[C@@H](C8=CC(=O)OC8)CC[C@]7(O)C6CC[C@@H]5C4)O[C@@H]3C)O[C@@H]2C)C[C@H](O)[C@@H]1O` (some centres undefined), for which the Kd is > 4 mM (inactive).

`NCCN=C1NS(=O)(=O)c2ccccc21`: the Kd is > 4 mM (inactive). For the molecule `COc1ccc2c(c1)OC[C@@H](Cc1ccc(OC)c(OC)c1)[C@H]2O`, the Kd was > 4 mM (inactive). As for `Cc1cc(C(=O)NCc2cccnc2)cs1`, the figure is > 4 mM (inactive); as for `O=C1NC(=O)C(=Cc2cccs2)C(=O)N1`, > 4 mM (inactive); as for `Fc1ccc(F)c(CN2CCN(c3ncccn3)CC2)c1`, > 4 mM (inactive). As for `C=C(C)C1(O)OC(=O)C=C1OC` (centres undefined), the figure is > 4 mM (inactive); as for `COc1cc2c(cc1OC)C(=O)OC2`, > 4 mM (inactive); as for `COc1cc(CNC(=O)CCCC/C=C/C(C)C)ccc1O`, > 4 mM (inactive).

For the molecule `CC(=O)Oc1ccc(-c2nc(-c3cccnc3)no2)cc1`, the Kd was > 4 mM (inactive). In the case of `Cc1noc(C)c1C(=O)N1CCC(Cc2ccccc2)CC1` it was > 4 mM (inactive); in that of `CC(=O)Nc1ccc2c(c1)CCCC2=O`, > 4 mM (inactive); in that of `CC1CC[C@]2(NC1)O[C@H]1CC3C4CC[C@H]5C[C@@H](O)CC[C@]5(C)C4CC[C@]3(C)[C@H]1[C@@H]2C` (some centres undefined), > 4 mM (inactive). In the case of `O=C(CO)N/N=C/c1ccccc1F` it was > 4 mM (inactive).

As for `O=C(NC(=S)NCc1cccnc1)c1ccco1`, the Kd is > 4 mM (inactive). `CN1C(=O)/C(=C\c2ccc[nH]2)SC1=S`: the Kd was > 4 mM (inactive). As for `O=C(c1nc2ccccc2s1)N1CCSCC1`, the figure is > 4 mM (inactive). As for `COc1c(C(C)C)oc2cc3oc(=O)ccc3cc12`, the Kd is > 4 mM (inactive). As for `O=C(O)CCCC(=O)Nc1nccs1`, the figure is > 4 mM (inactive); as for `Nc1ncnc(NC2CCS(=O)(=O)C2)c1[N+](=O)[O-]` (centres undefined), > 4 mM (inactive); as for `Cc1cc(NC(=O)c2ccc3c(c2)OCCO3)no1`, > 4 mM (inactive).

For `Cc1cc(=O)n(CCc2ccccc2)c(O)c1C#N`, the Kd is > 4 mM (inactive). In the case of `Clc1ncc2[nH]cnc2n1` it was > 4 mM (inactive); in that of `CC(C)(C)CC(=O)N1CCC(C(N)=O)CC1`, > 4 mM (inactive). As for `OCC1Cc2ccccc2CN1` (centres undefined), the figure is > 4 mM (inactive). Regarding `Nc1ccc(-n2cccn2)cc1`, the Kd was > 4 mM (inactive). In the case of `COc1ccc2c(c1)[n+](=O)c(C(C)=O)c(C)n2[O-]` it was > 4 mM (inactive). In the case of `O=c1c[n+]([O-])c2ccccc2n1OCc1ccccn1` it was > 4 mM (inactive); in that of `O=C(NCN1CCOCC1)c1cccnc1`, > 4 mM (inactive). As for `COc1ccc(CN2CCC(O)CC2)c(O)c1`, the figure is > 4 mM (inactive); as for `O=S(=O)(NCc1ccco1)c1cccc2cccnc12`, > 4 mM (inactive). As for `CC1=C2C(=CO[C@H](C)[C@H]2C)C(=O)C(C(=O)O)=C1O`, the Kd was > 4 mM (inactive). For the molecule `CC(C)NC(=O)c1nc2ccccc2s1`, the Kd is > 4 mM (inactive).

`Cc1cn2c(-c3cccnc3)nnc2s1`: the Kd was > 4 mM (inactive). In the case of `O=C1C2CC=CCC2C(=O)N1c1ccccc1` (centres undefined) it was > 4 mM (inactive); in that of `CCOC(=O)C1CCN(c2ncnc3nc[nH]c23)CC1`, > 4 mM (inactive); in that of `O=C1CCNc2ccccc2N1`, > 4 mM (inactive). In the case of `O=C(COc1ccccc1)N1CCc2ccccc2C1` it was > 4 mM (inactive); in that of `O=C(O)CNS(=O)(=O)c1cccs1`, > 4 mM (inactive); in that of `O=C(O)c1ccc(Oc2ccccc2)nc1`, > 4 mM (inactive).

Turning to `Cc1nnc(SCc2ccccc2)[nH]c1=O`, the Kd was > 4 mM (inactive). In the case of `c1ccc(C[N+]23CCN(CC2)CC3)cc1` it was > 4 mM (inactive). As for `Nc1cc(F)cc(F)c1`, the Kd is > 4 mM (inactive). As for `Cc1nnc(SCC(=O)NC2CCCC2)[nH]c1=O`, the figure is > 4 mM (inactive). As for `COc1ccc(-c2nc(C)sc2CC(=O)O)cc1`, the figure is > 4 mM (inactive). As for `O=C(O)C1CSC2(CCCCC2)N1` (centres undefined), the figure is > 4 mM (inactive); as for `OC1CC(c2ccccc2)NC2(CCCC2)C1` (centres undefined), > 4 mM (inactive); as for `Cc1cccn2cc(CNc3ccccc3)nc12`, > 4 mM (inactive). Consider `CC(=O)Nc1cccc(N2CCCC2=O)c1`, for which the Kd was > 4 mM (inactive). For `OCCNc1nc2ccc(Cl)cc2[nH]1`, the Kd was > 4 mM (inactive). As for `Cn1nnc2cc(CO)ccc21`, the figure is > 4 mM (inactive). As to `OC[C@@H](O)[C@@H](O[C@@H]1O[C@H](CO)[C@@H](O)[C@H](O)[C@H]1O)[C@H](O)[C@@H](O)CO`, the Kd was > 4 mM (inactive). As for `CC(CC(=O)O)n1cccn1` (centres undefined), the figure is > 4 mM (inactive). In the case of `Cc1cc(C)n(-c2nncn2N)n1` it was > 4 mM (inactive); in that of `CCOc1ccc(Cl)cc1S(=O)(=O)N1CCCC1`, > 4 mM (inactive); in that of `O=C1CSC(=Nc2ccc(C(=O)O)cc2)N1`, > 4 mM (inactive). In the case of `N#Cc1sc2nc3c(c(-c4cccnc4)c2c1N)CCC3` it was > 4 mM (inactive); in that of `NC(=O)CSc1ccc(-c2ccco2)nn1`, > 4 mM (inactive).

`Nc1nonc1-c1nc2ccccc2[nH]1`: the Kd is > 4 mM (inactive).

Usually Kd stands for the free concentration of one partner at which half of the binding sites on the other are occupied at equilibrium, for simple one-to-one binding.
